System: light damaged rats
Assay: Optical coherence tomography (OCT) of retinal layers and choroid in light damage model
Format: in vivo, Sprague Dawley (SD) rats
Method: Retina Light Damage Model of Dry Age-Related Macular Degeneration—The intense light damage model was prepared and carried out as described in previous studies. Mat Nor N, Guo C X, Rupenthal ID, Chen Y S, Green C R, Acosta M L. Sustained Connexin43 Mimetic Peptide Release From Loaded Nanoparticles Reduces Retinal and Choroidal Photodamage. Invest Ophthalmol Vis Sci. 2018; 59:3682-93; Guo C X, Mat Nor M N, Danesh-Meyer H V, Vessey K A, Fletcher E L, O'Carroll S J, et al. Connexin43 Mimetic Peptide Improves Retinal Function and Reduces Inflammation in a Light-Damaged Albino Rat Model. Invest Ophthalmol Vis Sci. 2016; 57:3961-73; Guo C X, Tran H, Green C R, Danesh-Meyer H V, Acosta M L. Gap junction proteins in the light-damaged albino rat. Mol Vis. 2014; 20:670-82; Noell W K, Walker V S, Kang B S, Berman S. Retinal damage by light in rats. Invest Ophthalmol. 1966; 5:450-73. The light damage rat model was selected as it allows direct comparison with this and other drugs. Kim Y, Griffin J M, Nor M N M, Zhang J, Freestone P S, Danesh-Meyer H V, et al. Tonabersat Prevents Inflammatory Damage in the Central Nervous System by Blocking Connexin43 Hemichannels. Neurotherapeutics. 2017; 14:1148-65; Mat Nor N, Guo C X, Rupenthal ID, Chen Y S, Green C R, Acosta M L, supra; Guo C X, Mat Nor M N, Danesh-Meyer H V, Vessey K A, Fletcher E L, O'Carroll S J, et al., supra. […] All experimental procedures were approved by the University of Auckland Animal Ethics Committee, approval No. 001462 and comply with the Association for Research in Vision and Ophthalmology (ARVO) statement for the use of animals in eye research. Six to eight-week old albino Sprague Dawley (SD) rats (200-250 g; male or female) were used. Adult SD rats were exposed to continuous bright light for 24 hours, consistently starting at 9:00 am to minimize possible time-of-day variability. Light exposure was to two animals at a time to prevent rats from taking cover using each other as a shield. The LD protocol and intervention was repeated until the number of individuals for each dose group was obtained (n=7 per group). The light luminance was 2700 lux, generated using fluorescent lamps (Philips Master TLD 18W/965; Koninklijke Philips Electronics N.V., China) directly above the animal cages. The lamps were cool and emitted broadband light, from 380 to 760 nm wavelength, with the average intensity at the top of the cage being 120 W/m2. Animals were free to move within the cage with access to food and water ad libidum. Baseline electroretinography (ERG) readings and optical coherence tomography (OCT) images were collected prior to the light damage. After light exposure, animals were returned to normal light-dark cycle conditions (12 hours light, 174 lux and 12 hours darkness, <62 lux) for 24 hours, 1 week or 2 weeks (and for one group 3 months).
Tonabersat treatment of light damaged rats—LD rats were randomly assigned to low, middle or high dose of tonabersat (n=7 per group). The mixture of tonabersat in peanut butter was prepared fresh for each experiment. Three oral tonabersat doses were tested (n=7 per group) with follow up to 2 weeks post-injury, and the highest dose group then split with three animals taken for histological analysis, and four animals followed to 3 months post-injury. There was a ten-animal vehicle only control group. The group of rats that were kept for 3 months were maintained in separate cages for drug or vehicle-treated animals, but were kept under the same light conditions. Tonabersat was fed to animals in peanut butter at 0.26 mg/kg (on average 0.08 mg delivered, estimated circulating concentration 10 μM), 0.8 mg/kg (average of 0.24 mg delivered; 30 μM circulating) or 2.4 mg/kg (on average 0.72 mg delivered; 90 μM circulating) following consideration of previous unsuccessful human trial dosing levels. Silberstein S D. Tonabersat, a novel gap-junction modulator for the prevention of migraine. Cephalalgia. […]

[1] = 2.4 mg/kg oral, 3 months post treatment, p<0.001
[2] = all three oral doses, 24 hours, 1 week and 2 weeks post light damage

Which “ONL thickness compared to same animals prior to light damage” value (2.4 mg/kg oral, 3 months) does the source give for `CC(=O)c1ccc2c(c1)[C@H](NC(=O)c1ccc(F)c(Cl)c1)[C@H](O)C(C)(C)O2` [tonabersat, N-[(3S,4S)-6-acetyl-3-hydroxy-2,2-dimethyl-3,4-dihydrochromen-4-yl]-3-chloro-4-fluorobenzamide] here?
Its value is “no difference”.

And the “choroidal thickness compared to same rats prior to light damage” value (2.4 mg/kg oral, 3 months)?
Its value is “no difference”.

What about the “choroidal thickness compared to vehicle treatment group” value [1] of the same molecule?
The value was “significantly preserved”.

What about the “retinal thickness compared to vehicle treatment group” value [1] of the same molecule?
The value was “significantly preserved”.

And the “INL thickness compared to same animals prior to light damage” value (2.4 mg/kg oral, 3 months, p<0.05)?
The value was “slightly reduced thickness”.

What about the “choroidal thickness (OCT)” value [2] of the same molecule?
The value was “significantly preserved”.

What about the “retinal thickness (OCT)” value [2] of the same molecule?
The value was “significantly preserved”.

What about the “thinning in the ONL or choroid” value (lowest and middle dose (0.26, 0.8 mg/kg), up to 2 weeks post light damage) of the same molecule?
Its value is “some thinning at the lowest and middle dose, it was not significant”.

— patent publication US20220401408A1, “COMPOSITIONS AND METHODS FOR RESCUING RETINAL AND CHOROIDAL STRUCTURE AND FUNCTION” (AUCKLAND UNISERVICES LIMITED, priority 2019, published 2022)
